Test results published in publication PMC12426922, “Fingerprinting the Intestinal Transport of Low-Molecular-Mass Advanced Glycation End-Products (AGEs) Using a Caco‑2 Transwell Model” (Journal of Agricultural and Food Chemistry, 2025).
Several values for one entry are separate records, joined by “and”; a condition that tells them apart may be missing. Identical values can stand only once. Like-named read-outs stand apart in the source and are kept apart here. Marks after values point to notes of the source that are not given here.

What was measured:
Caco-2 cell monolayer = assay: Accumulation of AGEs in the Caco-2 cell monolayer after transport experiment; format: in vitro ADME, Human; details: mixture, each AGE 100 μmol/L, 2 h; for percentage of the amount added at the apical side at t = 0: accumulation (intracellular): standard treatment
Method: After the transport experiment, the cell monolayer on the inset membrane was washed three times with HBSS and three times with PBS. […] The samples were subsequently centrifuged at 16 000g for 20 min at 4 °C, and the supernatant was collected for further analysis by LC-MS.
The analytical column was maintained at 40 °C throughout the quantification process. A multistep binary gradient system of water containing 0.1% (v/v) formic acid (solvent A) and acetonitrile containing 0.1% (v/v) formic acid (solvent B) was used. In the whole gradient program, the total proportion of solvents A and B is always equal to 100%. […] The initial flow rate was set to 0.30 mL/min. Subsequently, it was reduced to 0.25 mL/min at 0.3 min, which was kept until 10 min. Afterward, there was a gradual decrease, reaching 0.15 mL/min at 11 min, and this rate was maintained until 12 min. […] Between 1 and 11 min of gradient running, the line was set to MS, and for the other time periods, the line was set to waste. The retention time and mass spectrometry parameters of individual AGEs are listed in Table S1 and the chromatograms of the samples are shown in Figure S1.

[1] = tested on: differentiated Caco-2 cells; assay: WST-1 cytotoxicity assay, viability of differentiated Caco-2 cells after 2 h exposure; format: cell-based, Human; details: for concentration that did not significantly affect cell viability: for the mixture: concentration of each AGE
Method: (§1) Human colon carcinoma cells (Caco-2 cells) were obtained from the American Type Culture Collection (ATCC, Rockville, MD, USA). Caco-2 cells were cultured in complete culture medium, composed of DMEM GlutaMAX with 10% FBS (v/v), 1% P/S (v/v), and 1% NEAA (v/v) at 37 °C in a 5% (v/v) CO2 incubator. In this study, Caco-2 cells within passages 10–15 were utilized.
The WST-1 assay was used to quantify the viability of differentiated Caco-2 cells upon exposure to the individual AGEs and their equimolar mixture. To this end, Caco-2 cells were seeded in 96-well plates at 3 × 10^4 cells/well (100 μL) and incubated at 37 °C under 5% (v/v) CO2 for 20 days. The complete culture medium was refreshed on each alternate day. After full differentiation, the culture medium was removed, and the cells were washed with HBSS (containing 1% (v/v) HEPES) twice on the testing day. The same volume (100 μL) of HBSS containing a series of concentrations of the different individual test compounds or of a mixture containing all 10 AGEs was added from a 20-times-concentrated stock solution in HBSS. The test concentrations were designed based on the estimated daily intake of total AGEs (0.55–0.66 mg/(kg·day)) and high-exposure scenarios (1.4–1.8 mg/(kg day)). […] After exposure for 2 h, the absorbance at 440 and 620 nm was measured in a plate spectrophotometer (Molecular Devices, San Jose, CA, USA, Spectra Max M2). After measurement, the cell viability was calculated as cell viability (%)=(Atested 440 nm−Atested 620 nm)/(Acontrol 440 nm−Acontrol 620 nm)×100

Caco-2 cell layer = assay: Transport of AGE mixture across Caco-2 cell layer (transwell, apical to basolateral); format: in vitro ADME, Human; details: for percentage of the amount added at the apical side at t = 0: apical side / percentage of the amount added at the apical side at t = 0: basolateral side / percentage of the amount added at the apical side at t = 0: apical side (nontransported) / percentage of the amount added at the apical side at t = 0: basolateral side (transported): mixture, each AGE 100 μmol/L, 2 h; for percentage of the amount added at the apical side at t = 0: apical side (nontransported) / percentage of the amount added at the apical side at t = 0: basolateral side (transported): standard treatment; for effect of 4 °C on transport compared to 37 °C: 4 °C versus 37 °C
Method: as §1
(§2) Caco-2 cells were cultured until reaching 50%–60% confluence (undifferentiated Caco-2 cells), followed by trypsinization. Then, cells were seeded at 3 × 10^4 cells per insert in 100 μL of complete culture medium into the transwell inserts of a 24-well transwell plate, and 600 μL of complete culture medium was added to the basolateral compartments. In both the apical and basolateral compartments, the medium was renewed every other day. After 2 weeks, the transepithelial electrical resistance (TEER) value was measured using a Millicell ERS-2 Electrical Resistance System (Burlington, MA, USA) every other day. Only wells with a TEER value of >400 Ω/cm^2 were used for transport experiments. Moreover, the TEER value was measured before and after the transport experiment to ascertain that the Caco-2 cell layer remained intact during the whole transport experiment.
(§3) Transport experiments were performed after 20 days of differentiation of the Caco-2 cells. The culture medium was replaced with HBSS (containing 1% (v/v) HEPES) 30 min prior to testing in both the apical and basolateral compartments. After the 30 min preincubation, 100 μL of HBSS containing a mixture of the 10 different AGEs including CML, CEL, GALA, argpyrimidine, MG-H1, GOLD, GOLA, MOLD, pentosidine, and pyrraline, each at 100 μmol/L, was added to the apical compartment after removing the preincubation medium, while the basolateral medium was replaced by 600 μL of HBSS. […] At 120 min, a 10 μL sample from the apical side was taken for calculating apical side retention (nontransported percentage).
(§4) The apparent permeability coefficient (Papp) value was calculated according to the methodology described by Yee.
(§5) AGEs were quantified by LC-MS using a Shimadzu Nexera XR LC-40D XR UPLC system (Kyoto, Japan) equipped with a UPLC Amide column (100 mm × 2.1 mm, 1.7 μm) without derivatization coupled with a Shimadzu LCMS-8045 triple quadrupole mass spectrometer (Kyoto, Japan). The analytical column was maintained at 40 °C throughout the quantification process. A multistep binary gradient system of water containing 0.1% (v/v) formic acid (solvent A) and acetonitrile containing 0.1% (v/v) formic acid (solvent B) was used. In the whole gradient program, the total proportion of solvents A and B is always equal to 100%. The gradient program was designed as follows: 75% solvent B to 12.5% solvent B from 0 to 10 min, followed by 12.5% solvent B from 10 to 11 min. […] The initial flow rate was set to 0.30 mL/min. Subsequently, it was reduced to 0.25 mL/min at 0.3 min, which was kept until 10 min. Afterward, there was a gradual decrease, reaching 0.15 mL/min at 11 min, and this rate was maintained until 12 min. […] Between 1 and 11 min of gradient running, the line was set to MS, and for the other time periods, the line was set to waste. The retention time and mass spectrometry parameters of individual AGEs are listed in Table S1 and the chromatograms of the samples are shown in Figure S1.

PepT1 = assay: as above; format: in vitro ADME, Human; details: human, mixture, each AGE 100 μmol/L; for recovery at 2 h, 100 μmol/L: Caco-2, with Gly-Sar 10 mmol/L (apical compartment), Gly-Sar 10 mmol/L, read-out: percentage of the amount added at the apical side at t = 0: recovery; for Papp at 120 min, 100 μmol/L: Caco-2, with Gly-Sar 10 mmol/L (apical), 10 mmol/L Gly-Sar apical (PepT1 inhibition), data from 120 min
Method: as §1, §2, §3, §4, §5

[2] = as above; format: in vitro ADME, Human; details: human; for recovery at 2 h, 100 μmol/L: read-out: percentage of the amount added at the apical side at t = 0: recovery; for Papp at 120 min, 100 μmol/L: data from 120 min
Method: as §1, §2, §3, §4, §5

[3] = Caco-2, 4 °C, mixture, each AGE 100 μmol/L
[4] = Caco-2, cytochalasin D pretreatment, mixture, each AGE 100 μmol/L
[5] = Caco-2, standard treatment (37 °C), equimolar mixture of 10 AGEs, each 100 μmol/L apical
[6] = Caco-2, standard treatment, mixture, each AGE 100 μmol/L
[7] = Caco-2, cytochalasin D 1 μg/mL, 30 min apical preincubation, mixture, each AGE 100 μmol/L

SMILES | percentage of the amount added at the apical side at t = 0: accumulation (Caco-2 cell monolayer; 4 °C) | percentage of the amount added at the apical side at t = 0: accumulation (Caco-2 cell monolayer; Gly-Sar 10 mmol/L) | percentage of the amount added at the apical side at t = 0: accumulation (Caco-2 cell monolayer; cytochalasin D pretreatment) | concentration that did not significantly affect cell viability [1] | percentage of the amount added at the apical side at t = 0: apical side (Caco-2 cell layer; 4 °C) | percentage of the amount added at the apical side at t = 0: basolateral side (Caco-2 cell layer; 4 °C) | percentage of the amount added at the apical side at t = 0: apical side (Caco-2 cell layer; Gly-Sar 10 mmol/L) | percentage of the amount added at the apical side at t = 0: basolateral side (Caco-2 cell layer; Gly-Sar 10 mmol/L) | percentage of the amount added at the apical side at t = 0: apical side (Caco-2 cell layer; cytochalasin D pretreatment) | percentage of the amount added at the apical side at t = 0: basolateral side (Caco-2 cell layer; cytochalasin D pretreatment) | percentage of the amount added at the apical side at t = 0: apical side (nontransported) (Caco-2 cell layer) | percentage of the amount added at the apical side at t = 0: basolateral side (transported) (Caco-2 cell layer) | recovery at 2 h, 100 μmol/L (PepT1) | Papp at 120 min, 100 μmol/L (PepT1) | recovery at 2 h, 100 μmol/L [2, 3] | Papp at 120 min, 100 μmol/L [2, 3] | recovery at 2 h, 100 μmol/L [2, 4] | Papp at 120 min, 100 μmol/L [2, 5] | recovery at 2 h, 100 μmol/L [2, 6] | Papp at 120 min, 100 μmol/L [2, 7] | other results
CC1NC(NCCC[C@H](N)C(=O)O)=NC1=O (stereo partly drawn) [MG-H1, methylglyoxal–hydroimidazolone] | 0.0 ± 0.0 ^b % | 0.3 ± 0.1 ^b % | 0.3 ± 0.1 ^b % | ≤ 750 µM | 89.7 ± 5.5 ^a % | 0.3 ± 0.1 ^b % | 90.1 ± 5.8 ^a % | 0.4 ± 0.2 ^b % | 93.0 ± 4.5 ^a % | 1.2 ± 0.6 ^a % | 93.4 ± 3.6 ^a % | 0.4 ± 0.2 ^b % | 90.8 ± 5.9% | 0.168 ×10⁻⁶ cm/s | 89.7 ± 5.4% | 0.107 ×10⁻⁶ cm/s | 94.6 ± 4.2% | 0.182 ×10⁻⁶ cm/s | 94.1 ± 3.6% | 0.526 ×10⁻⁶ cm/s | percentage of the amount added at the apical side at t = 0: accumulation (intracellular) (Caco-2 cell monolayer): 0.3 ± 0.1 ^a %
N[C@@H](CCCCNC(=O)CO)C(=O)O [GALA, glycolic acid–lysine–amide] | 0.0 ± 0.0 ^b % | 0.2 ± 0.1 ^a % | 0.2 ± 0.1 ^a % | ≤ 1500 µM | 89.1 ± 4.5 ^a % | 0.2 ± 0.1 ^c % | 84.4 ± 3.6 ^a % | 0.8 ± 0.2 ^b % | 87.4 ± 4.3 ^a % | 2.1 ± 0.8 ^a % | 85.0 ± 7.1 ^a % | 1.1% and 1.06% and 1.1 ± 0.3 ^b % | 85.4 ± 3.6% | 0.321 ×10⁻⁶ cm/s | 89.3 ± 4.5% | 0.095 ×10⁻⁶ cm/s | 89.7 ± 4.6% | 0.448 ×10⁻⁶ cm/s | 86.2 ± 7.1% | 0.87 ×10⁻⁶ cm/s | percentage of the amount added at the apical side at t = 0: accumulation (intracellular) (Caco-2 cell monolayer): 0.2 ± 0.1 ^a %; effect of 4 °C on transport compared to 37 °C (Caco-2 cell layer): significantly reduced; reduction of the Papp value in the presence of Gly-Sar (Caco-2 cell layer; Gly-Sar 10 mmol/L versus standard): 28%
N[C@@H](CCCC[n+]1cccc2[nH]c(NCCC[C@H](N)C(=O)O)nc21)C(=O)O [pentosidine] | 0.0 ± 0.0 ^a % | 0.0 ± 0.0 ^a % | 0.0 ± 0.0 ^a % | ≤ 500 µM | 83.2 ± 6.7 ^a % | 0.1 ± 0.1 ^b % | 92.8 ± 10.4 ^a % | 0.1 ± 0.1 ^b % | 95.0 ± 14.2 ^a % | 0.7 ± 0.4 ^a % | 89.1 ± 12.2 ^a % |  | 93 ± 10.5% | 0.061 ×10⁻⁶ cm/s | 83.3 ± 6.6% | 0.054 ×10⁻⁶ cm/s | 92.6 ± 14.5% | 0.083 ×10⁻⁶ cm/s | 96.9 ± 12.3% | 0.278 ×10⁻⁶ cm/s | 
N[C@@H](CCCCn1cc[n+](CCCC[C@H](N)C(=O)O)c1)C(=O)O [GOLD, glyoxal-derived lysine dimer] | 0.0 ± 0.0 ^c % | 0.1 ± 0.0 ^a % | 0.0 ± 0.0 ^ab % |  | 89.6 ± 13.2 ^b % | 0.1 ± 0.1 ^b % | 93.7 ± 7.9 ^ab % | 0.2 ± 0.1 ^b % | 101.2 ± 9.4 ^a % | 0.8 ± 0.3 ^a % | 94.6 ± 8.1 ^ab % | 0.3 ± 0.2 ^b % | 94.1 ± 8% | 0.1 ×10⁻⁶ cm/s | 89.8 ± 13.2% | 0.069 ×10⁻⁶ cm/s | 102 ± 9.5% | 0.134 ×10⁻⁶ cm/s | 95 ± 8.2% | 0.32 ×10⁻⁶ cm/s | effect on cell viability [1]: did not affect cell viability up to the highest concentration tested; effect of 4 °C on transport compared to 37 °C (Caco-2 cell layer): significantly reduced
